Each structure is given as a SMILES string. Entries after “also recorded” stand apart in the source; their conditions may differ. Like-named read-outs stand apart in the source and are kept apart here. Where only a bound is given, the exact number is not on record here.

The target in one series is Vanin-1 (Homo sapiens (Human), UniProt O95497). Put plainly: VNN1 inhibitor binding assay (Kd, affinity beads, qPCR readout). Particulars: read-out: Vanin Affinity (nM), Vanin-1 Binding constants. On the procedure:
(§1) Test compounds were prepared as 111X stocks in 100% DMSO. Kd values were determined using an 11-point 3-fold compound dilution series with three DMSO control points. […] The compounds were then diluted directly into the assays such that the final concentration of DMSO was 0.9%. All reactions were performed in polypropylene 384-well plate. Each was a final volume of 0.02 ml. […] The beads were then re-suspended in elution buffer (1×PBS, 0.05% Tween 20, 0.5 μM non-biotinylated affinity ligand) and incubated at room temperature with shaking for 30 minutes. The kinase concentration in the eluates was measured by qPCR.
Binding constants were calculated with a standard dose-response curve using the Hill equation:
The Hill Slope was set to −1. Curves were fitted using a non-linear least square fit with the Levenberg-Marquardt algorithm. The binding data is summarized in Table 1 where A is less than 100 nM, B is 100 to 500 nM, and C is greater than 500 nM.
as §1, with “are” for “were”, “is” for “was”, “reactions” for “reactions were”
Binding constants are calculated with a standard dose-response curve using the Hill equation:
The Hill Slope was set to −1. Curves were fitted using a non-linear least square fit with the Levenberg-Marquardt algorithm. The binding data is summarized in Table 4 where A is less than 100 nM, B is 100 to 500 nM, and C is greater than 500 nM.
In general terms: In qPCR the cycle at which signal appears reflects the starting amount.

Series [1] in a line: parallel artificial membrane permeation assay (PAMPA). The conditions noted are these: 20 μM in PBS/MeOH 90:10, 5 hours at room temperature. On the technique in general: PAMPA measures passive passage across an artificial lipid membrane.
Method: (§4) The permeability of compounds was evaluated with the parallel artificial membrane permeation assay (PAMPA) as an in vivo model of passive diffusion across a porous filter coated with a lipid/oil/lipid tri-layer artificial membrane. […] Donor solutions of test compound (300 μL, 20 μM in PBS/MeOH 90:10) were added to each well of the donor plate. 200 μL of PBS/MeOH 90:10 was added to each well of the acceptor plate. The acceptor plate was coupled with the donor plate and incubated for 5 hours at room temperature (RT) without agitation. In each plate, test compound was tested in triplicate. At the end of the incubation, test compound concentration in the initial donor solution, acceptor and the donor wells were determined using LC/MS/MS. Permeability of test compound was calculated based on the formula described in “Analytical Method”.
A further series has as its system TNF-alpha (TNFA). Briefly: Cellular assay, TNF-alpha ELISA in LPS-treated THP-1 cells. It counts as cell-based. Particulars: 1 μM, THP-1 human monocytes, LPS 50 ng/ml, p<0.05. The protocol: THP-1 cells were grown to confluence and plated in 6-well plates. PMA (25 nM) was added to the medium and replaced with non-PMA containing medium 24 hrs later. ATH compounds (1 μM) or vehicle (0.1% DMSO) were added and allowed to incubate. After 4 hrs LPS (50 ng/ml) was added without replacement of the medium and supernatants were collected after 4 and 24 hrs. Media were placed on ice for cytokine detection using ELISA (Quantikine, R&D Systems).
VNN1 inhibitors Compound 1 and Compound 2 show suppression of TNF-alpha (TNFA) expression after LPS (lipopolysaccharide) treatment, in THP-1 human monocytes (FIG. 3, p<0.05 for both).

The test system of series [2] is TNF-alpha (TNFA), interleukin 6 (IL6), interleukin 1beta (IL1B), MCP1 and interleukin 8 (IL8). Put plainly: Immune cellular assay, cytokine ELISA multiplex in LPS-treated THP-1 derived macrophages. It counts as cell-based, human. Particulars: 1 μM, THP-1 macrophages, 100 ng/mL LPS for 4 or 24 hours. The protocol:
The anti-inflammatory properties of the four VNN1 inhibitors (Compound 1, Compound 2, Compound 3, and Compound 80) were evaluated in an immune cellular assay targeting key pro-inflammatory cytokines involved in the pathogenesis of multiple autoimmune disease.
Specifically, THP-1 human monocytes were grown in 6-well plates (RPMI 1640+10% FBS+1% P/S). After washing with PBS the THP-1 cells were differentiated into macrophages using 20 nM of phorbol 12-myristate 13-acetate (PMA) for 24 hrs. Compound 1, Compound 2, Compound 3, and Compound 80 (1 μM) were added into the macrophages, which are incubated for 4 hours before the addition of 100 ng/mL lipopolysaccharide (LPS) for either 4 or 24 hours. Next, the macrophages are collected via centrifugation at 1.2K rpm for 5 min and use their media to evaluate cytokine protein levels by using the Bio-rad Cytokine ELISA multiplex assay (cat. No M5000031YV). The supernatants from macrophages treated only with only LPS+PMA are collected and use as negative controls.
The anti-inflammatory properties of the VNN1 inhibitors Compound 5, Compound 9, Compound 10, Compound 13, Compound 14, Compound 16, Compound 20, Compound 21, Compound 26, Compound 23, and Compound 24 are evaluated using the immune cellular assay outlined in Example 6. Suppression of TNF-alpha (TNFA), interleukin 6 (IL6), interleukin 1beta (IL1B), MCP1 and interleukin 8 (IL8) is determined.
Background: ELISA stands for enzyme-linked immunosorbent assay.

In the next series the target is CYP3A4 (Homo sapiens (Human), UniProt P08684). Briefly: Cytochrome P450 inhibition assay, substrate cocktail in human liver microsome. The class given is in vitro ADME. Particulars: microsomes. The protocol: (§2) Cytochrome P450 inhibition of a drug is a key factor in determining pharmacokinetic drug-drug interactions. The objective of this study is to evaluate the inhibition potential of VNN1 inhibitors on six (6) major human cytochrome P450 enzymes, including CYP1A2, CYP2C8, CYP2C9, CYP2C19, CYP2D6, and CYP3A4. Inhibition was determined by using a substrate cocktail and analyzing the rate of specific metabolites formation. The cytochrome P450 inhibition assay was developed using a cocktail consisting of six (6) probe substrates ethoxy-resorufin (CYP1A2), rosiglitazone (CYP2C8), diclofenac (CYP2C9), S-mephenytoin (CYP2C19), dextromethorphan (CYP2D6), and midazolam (CYP3A4). The cocktail was incubated in human liver microsome with NADPH regenerating system (NRS) in a shaking bath at 37±2° C. The formation of specific metabolites was monitored by LC/MS/MS. Test compound was added to the cocktail-liver microsome mixture at varying concentrations and its effect on cytochrome P450 activity was determined by analyzing the rate of specific metabolite formation. The percent inhibition was calculated and plotted with reference to the concentration, and the IC50 value for inhibition was derived by fitting the data with a standard sigmoidal dose-response equation via MLA “Quest Graph™ ED50 Calculator.” AAT Bioquest, Inc, 17 Sep. 2020, aatbio.com/tools/ed50-calculator. […]. […].
(§3) Inhibition by Cytochrome P450 is determined using a substrate cocktail and analyzing the rate of specific metabolites formation outlined in Example 21. The following structures were tested: Compound 5, Compound 9, Compound 10, Compound 13, Compound 14, Compound 16, Compound 20, Compound 21, Compound 23, Compound 24, and Compound 25.

The next series concerns the target CYP2C8 (Homo sapiens (Human), UniProt P10632). The series is described as above. The class given is in vitro ADME. The conditions noted are these: microsomes. On the procedure:
as §2, §3

For a further series, the target named is CYP1A2 (Homo sapiens (Human), UniProt P05177). The description is as above. The class given is in vitro ADME. The conditions noted are these: microsomes. The protocol:
as §2, §3

A further series concerns the target CYP2D6 (Homo sapiens (Human), UniProt P10635). The description is as above. It counts as in vitro ADME. The conditions noted are these: microsomes. The protocol:
as §2, §3

In a further series the target is CYP2C9 (Homo sapiens (Human), UniProt P11712). The description is as above. It counts as in vitro ADME. Particulars: microsomes. On the procedure:
as §2, §3

The next series deals with CYP2C19 (Homo sapiens (Human), UniProt P33261). Described as above. The class given is in vitro ADME. Particulars: CYP isozyme 2C19, human liver microsome. On the procedure: as §2, §3
The conditions of series [3]: for Permeability, Pe: PAMPA, 5 h, 20 μM.
Method: as §4
For series [4] the following is noted: positive controls, published class; cited from earlier work.
A short description of the next series: in vitro. Particulars: PAMPA.

Chain of Vanin-1 (O95497 22-513): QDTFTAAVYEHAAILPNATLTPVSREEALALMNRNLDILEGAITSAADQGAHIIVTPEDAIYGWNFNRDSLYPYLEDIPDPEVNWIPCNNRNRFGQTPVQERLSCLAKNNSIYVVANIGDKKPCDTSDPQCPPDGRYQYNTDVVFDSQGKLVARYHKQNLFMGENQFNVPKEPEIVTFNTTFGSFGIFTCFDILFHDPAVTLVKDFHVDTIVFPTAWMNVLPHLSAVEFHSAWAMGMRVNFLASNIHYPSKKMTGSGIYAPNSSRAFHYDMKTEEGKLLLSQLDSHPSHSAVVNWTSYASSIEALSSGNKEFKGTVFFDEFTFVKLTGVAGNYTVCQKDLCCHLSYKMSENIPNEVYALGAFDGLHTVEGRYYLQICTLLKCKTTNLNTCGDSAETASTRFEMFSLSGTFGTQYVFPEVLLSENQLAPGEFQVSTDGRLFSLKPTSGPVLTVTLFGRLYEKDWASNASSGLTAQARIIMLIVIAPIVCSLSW
Chain of CYP2C9 (P11712 whole entry): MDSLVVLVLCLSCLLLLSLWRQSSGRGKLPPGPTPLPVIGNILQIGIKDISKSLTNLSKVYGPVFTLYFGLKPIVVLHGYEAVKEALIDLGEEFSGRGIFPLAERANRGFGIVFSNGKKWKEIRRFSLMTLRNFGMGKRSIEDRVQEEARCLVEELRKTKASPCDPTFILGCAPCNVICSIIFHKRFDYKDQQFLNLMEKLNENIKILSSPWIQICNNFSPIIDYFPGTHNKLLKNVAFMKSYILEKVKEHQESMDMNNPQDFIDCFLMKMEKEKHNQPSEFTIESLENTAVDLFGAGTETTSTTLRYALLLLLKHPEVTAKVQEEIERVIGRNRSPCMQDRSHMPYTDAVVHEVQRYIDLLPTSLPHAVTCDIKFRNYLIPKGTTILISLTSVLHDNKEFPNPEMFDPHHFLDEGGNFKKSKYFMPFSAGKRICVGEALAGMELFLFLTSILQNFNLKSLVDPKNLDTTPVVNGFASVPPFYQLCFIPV
Chain of CYP2C8 (P10632 whole entry): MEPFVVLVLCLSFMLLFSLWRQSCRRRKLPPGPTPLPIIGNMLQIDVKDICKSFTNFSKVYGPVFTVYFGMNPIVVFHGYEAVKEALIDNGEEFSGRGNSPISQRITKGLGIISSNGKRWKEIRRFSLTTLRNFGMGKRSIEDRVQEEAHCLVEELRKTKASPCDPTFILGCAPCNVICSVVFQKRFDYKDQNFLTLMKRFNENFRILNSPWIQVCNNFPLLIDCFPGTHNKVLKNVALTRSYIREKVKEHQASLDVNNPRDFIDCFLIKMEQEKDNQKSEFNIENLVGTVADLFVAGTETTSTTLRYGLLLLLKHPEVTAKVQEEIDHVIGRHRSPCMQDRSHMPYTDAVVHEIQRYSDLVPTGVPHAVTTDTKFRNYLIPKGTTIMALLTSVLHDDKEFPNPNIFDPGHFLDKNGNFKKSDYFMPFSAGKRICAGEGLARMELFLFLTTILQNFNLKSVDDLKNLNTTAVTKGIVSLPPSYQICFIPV
Chain of CYP2C19 (P33261 whole entry): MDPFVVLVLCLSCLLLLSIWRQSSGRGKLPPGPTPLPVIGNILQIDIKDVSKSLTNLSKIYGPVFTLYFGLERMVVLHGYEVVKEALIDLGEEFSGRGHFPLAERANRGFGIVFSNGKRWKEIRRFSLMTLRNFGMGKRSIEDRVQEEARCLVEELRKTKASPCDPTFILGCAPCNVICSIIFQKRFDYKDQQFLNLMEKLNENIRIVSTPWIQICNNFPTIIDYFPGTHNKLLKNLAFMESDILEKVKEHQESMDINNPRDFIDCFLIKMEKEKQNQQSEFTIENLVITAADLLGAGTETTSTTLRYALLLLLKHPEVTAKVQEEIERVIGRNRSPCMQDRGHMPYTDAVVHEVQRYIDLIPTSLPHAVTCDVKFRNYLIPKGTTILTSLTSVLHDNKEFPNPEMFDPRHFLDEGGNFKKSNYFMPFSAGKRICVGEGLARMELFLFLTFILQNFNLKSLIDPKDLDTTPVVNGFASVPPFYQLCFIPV
Chain of CYP1A2 (P05177 whole entry): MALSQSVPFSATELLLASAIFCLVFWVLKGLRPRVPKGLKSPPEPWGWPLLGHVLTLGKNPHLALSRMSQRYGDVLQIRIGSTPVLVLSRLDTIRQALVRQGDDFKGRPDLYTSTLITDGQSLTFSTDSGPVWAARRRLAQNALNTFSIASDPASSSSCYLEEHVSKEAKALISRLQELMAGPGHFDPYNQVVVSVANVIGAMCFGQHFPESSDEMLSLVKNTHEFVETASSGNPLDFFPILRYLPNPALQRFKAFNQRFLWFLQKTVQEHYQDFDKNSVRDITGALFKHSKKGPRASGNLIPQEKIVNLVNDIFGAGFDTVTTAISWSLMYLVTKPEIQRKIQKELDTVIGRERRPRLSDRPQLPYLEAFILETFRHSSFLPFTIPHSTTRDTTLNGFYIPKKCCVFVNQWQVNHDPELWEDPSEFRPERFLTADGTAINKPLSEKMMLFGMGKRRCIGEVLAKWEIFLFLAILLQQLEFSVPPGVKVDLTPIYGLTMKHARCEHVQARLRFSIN
Chain of CYP3A4 (P08684 whole entry): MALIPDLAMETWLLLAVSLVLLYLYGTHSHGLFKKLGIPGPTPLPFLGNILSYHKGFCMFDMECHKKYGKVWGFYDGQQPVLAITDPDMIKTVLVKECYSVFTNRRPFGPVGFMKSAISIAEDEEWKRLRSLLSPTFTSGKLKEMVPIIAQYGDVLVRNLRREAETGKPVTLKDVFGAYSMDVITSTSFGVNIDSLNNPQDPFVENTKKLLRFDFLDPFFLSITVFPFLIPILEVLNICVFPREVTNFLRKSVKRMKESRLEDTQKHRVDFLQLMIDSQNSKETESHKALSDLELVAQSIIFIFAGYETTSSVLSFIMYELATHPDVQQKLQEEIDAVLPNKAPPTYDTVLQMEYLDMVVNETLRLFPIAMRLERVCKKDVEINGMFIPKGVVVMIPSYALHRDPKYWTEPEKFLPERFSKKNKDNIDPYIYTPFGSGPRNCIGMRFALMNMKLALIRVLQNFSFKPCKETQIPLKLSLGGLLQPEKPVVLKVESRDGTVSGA
Chain of CYP2D6 (P10635 whole entry): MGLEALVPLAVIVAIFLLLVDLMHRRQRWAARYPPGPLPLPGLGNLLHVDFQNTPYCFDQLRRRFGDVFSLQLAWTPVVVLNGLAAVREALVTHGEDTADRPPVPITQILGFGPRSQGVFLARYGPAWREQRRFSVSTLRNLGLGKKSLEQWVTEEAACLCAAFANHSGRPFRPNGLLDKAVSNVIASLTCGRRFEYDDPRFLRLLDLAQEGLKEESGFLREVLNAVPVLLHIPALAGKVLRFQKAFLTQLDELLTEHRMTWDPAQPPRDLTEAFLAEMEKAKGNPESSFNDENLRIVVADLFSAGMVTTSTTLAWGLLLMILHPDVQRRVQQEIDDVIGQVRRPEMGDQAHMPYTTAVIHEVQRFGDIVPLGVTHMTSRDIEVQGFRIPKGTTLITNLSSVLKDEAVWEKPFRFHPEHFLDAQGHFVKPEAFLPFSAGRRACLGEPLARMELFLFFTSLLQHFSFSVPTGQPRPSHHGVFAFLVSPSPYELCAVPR
Method for in vitro: as §4

Consider `O=C(Cc1ccccc1)c1ccn(C(=O)c2ccccc2F)c1` [Compound 1, 1-(1-(2-fluorobenzoyl)-1H-pyrrol-3-yl)-2-phenylethan-1-one], for which, at Vanin-1, the Kd fell in the range of 100 to 500 nM. Further, the “Permeability, Pe” value in series [1] worked out at 23.6 ×10⁻⁶ cm/s. The “suppression of TNF-alpha (TNFA) expression after LPS treatment” value with TNF-alpha (TNFA) was “suppression; also recorded: significantly inhibits”. Also, the “activity against IL6, TNFA and MCP1” value in [2] is “highly potent activity”. Besides, the IC50 (commonly the concentration at which inhibition is half-maximal) against CYP3A4 was over 100 µM; against CYP2C8 it was over 100 µM; at CYP1A2 it was over 100 µM; at CYP2D6, over 100 µM; at CYP2C9 it was over 100 µM; at CYP2C19, 50.6 µM.
Consider `O=C(Cc1ccccc1)c1ccn(Cc2c(F)cccc2F)c1` [Compound 2, 1-(1-(2,6-difluorobenzyl)-1H-pyrrol-3-yl)-2-phenylethan-1-one], for which the Kd at Vanin-1 lay in the range of 100 to 500 nM. In the series with TNF-alpha (TNFA), the “suppression of TNF-alpha (TNFA) expression after LPS treatment” value is listed as “suppression; also recorded: significantly inhibits”. For the same compound, the “activity against IL6, TNFA and MCP1” value in series [2] is given as “highly potent activity”. Besides, the IC50 at CYP3A4 was 73.7 µM; on CYP2C8, 65.5 µM; at CYP1A2 it was over 100 µM; on CYP2D6, 27 µM; on CYP2C9 it was 63.4 µM; at CYP2C19 it was 15.3 µM. In [3], the “Permeability, Pe” value came out at 13.6 ×10⁻⁶ cm/s.
On to `O=C(c1ccn(Cc2c(F)cccc2F)c1)C(Cc1c(F)cccc1F)c1ccccc1` (stereo not shown) [Compound 3, 1-(1-(2,6-difluorobenzyl)-1H-pyrrol-3-yl)-3-(2,6-difluorophenyl)-2-phenylpropan-1-one], for which the Kd at Vanin-1 is over 500 nM. Moreover, the “activity against IL6, TNFA and MCP1” value in series [2] is given as “highly potent activity”.
In the case of `Cn1c(C(=O)Cc2ccccc2)ccc1C(=O)c1ccccc1F` [Compound 22, 1-(5-(2-fluorobenzoyl)-1-methyl-1H-pyrrol-2-yl)-2-phenylethan-1-one], on Vanin-1, the Kd is under 100 nM.
Take `Cn1c(C(=O)Cc2ccccc2)ccc1C(=O)c1ccccn1` [Compound 25, 1-(1-methyl-5-picolinoyl-1H-pyrrol-2-yl)-2-phenylethan-1-one]: the Kd on Vanin-1 fell in the range of 100 to 500 nM.
Still for that read-out and setting: in the case of `Cn1c(C(=O)c2ccccc2F)ccc1C(=O)N1CCC2(CCOCC2)C1` [Compound 33, (5-(2-fluorobenzoyl)-1-methyl-1H-pyrrol-2-yl) (8-oxa-2-azaspiro[4.5]decan-2-yl) methanone] it was under 100 nM.
Regarding `Cn1c(C(=O)NC(C)(C)C)ccc1C(=O)c1ccccc1F` [Compound 43, N-(tert-butyl)-5-(2-fluorobenzoyl)-1-methyl-1H-pyrrole-2-carboxamide], the Kd at Vanin-1 is under 100 nM.
The same measure, in the same setting: the result for `Cn1cc(C(=O)Cc2ccccc2)cc1C(=O)c1ccccc1F` [Compound 46, 1-(5-(2-fluorobenzoyl)-1-methyl-1H-pyrrol-3-yl)-2-phenylethan-1-one] reads over 500 nM; that for `O=C(Cc1ccccc1)c1c[nH]c(C(=O)c2ccccc2F)c1` [Compound 47, 1-(5-(2-fluorobenzoyl)-1H-pyrrol-3-yl)-2-phenylethan-1-one], over 500 nM; that for `Cn1cc(C(=O)c2ccccc2F)cc1C(=O)O` [Compound 76, 4-(2-fluorobenzoyl)-1-methyl-1H-pyrrole-2-carboxylic acid], over 500 nM.
Still for that read-out and setting: the result for `Cn1cc(C(=O)c2ccccc2F)cc1C(=O)N1CCC2(CCOCC2)C1` [Compound 77, (4-(2-fluorobenzoyl)-1-methyl-1H-pyrrol-2-yl) (8-oxa-2-azaspiro[4.5]decan-2-yl) methanone] reads under 100 nM; that for `CC(=O)N(C)[C@@H]1CCN(C(=O)c2cc(C(=O)c3ccccc3F)cn2C)C1` [Compound 78, (R)—N-(1-(4-(2-fluorobenzoyl)-1-methyl-1H-pyrrole-2-carbonyl)pyrrolidin-3-yl)-N-methylacetamide], under 100 nM.
As for `Cn1cccc1C(=O)Cc1ccccc1` [Compound 80, 1-(1-methyl-1H-pyrrol-2-yl)-2-phenylethan-1-one], the “activity against IL6, TNFA and MCP1” value in series [2] is given as “highly potent activity”.
As to `O=C(O)Cc1ccccc1Nc1c(Cl)cccc1Cl` [Diclofenac], the published permeability result in series [4] is reported as “high”. The “Permeability, Pe” value in series [3] was found to be 10.9 ×10⁻⁶ cm/s.
As for `CCN1CCCC1CNC(=O)c1cc(S(N)(=O)=O)ccc1OC` (stereo not shown) [Sulpiride], the Papp (usually a coefficient for how fast a substance crosses the barrier) at 5 h, 20 μM in “in vitro” turned out to be 0.0392 ×10⁻⁶ cm/s. Besides, in [4], the published permeability result was “low”. Further, the “PAMPA permeability Classification” value in series [3] is given as “Low/Medium”.

Values taken from US20250042850A1, “PHARMACEUTICAL COMPOUNDS AND METHODS OF MAKING AND USING THE SAME” (Athos Therapeutics, Inc., priority 2021, published 2025).
